{"source": "patent EP0172917A1", "about": "“AGENTS FOR TREATING IMMUNODEFICIENCY, METHOD FOR TREATING THEM, AND USE THEREOF” (Yoshitomi Pharmaceutical Industries, Ltd., priority 1984, dated 1985)", "key": {"[1]": {"tested_on": "thymus-rossete forming cells (RFC)", "test": "Stimulative effect on immune response: thymus rosette forming cells after sheep red blood cell immunization", "type": "in vivo, C57BL/6 mice", "conditions": "for Ratio (%) of RFC (mean ± standard error): C57BL/6 mice, control 1.06±0.31; for % increase: RFC ratio vs control", "procedure": "(§1) Six week-old female C57BL/6 mice were immunized with the intraperitoneal administration of 5 x 10^8 sheep red blood cells. […] On the 4th day after immunization, the numbers of thymus-rossete forming cells (RFC) in mice were assessed by the method of Bach et al [Cellular Immunology, vol. 3, p. […] Viable thymus lymphocytes which attached to four or more sheep red blood cells were determined as RFC. In control group, 0.5% methylcellulose solution was orally administered into mice."}, "[2]": {"tested_on": "thymus-rossete forming cells (RFC)", "test": "Restorative effect on reduced immune response: thymus RFC in cyclophosphamide-pretreated mice", "type": "in vivo, BALB/c mice", "conditions": "for Ratio (%) of RFC (mean ± standard error): BALB/c mice; for % decrease: RFC ratio vs control", "procedure": "as §1\nThe same procedures as shown in Experiment 1 were performed except that six week-old female BALB/c mice were immunized with 5 x 10^8 sheep red blood cells and 20 mg/kg cyclophosphamide was orally administered to mice the day before and on immunization."}, "[3]": {"tested_on": "rat peritoneal leukocytes", "test": "Stimulative effect on phagocytosis of leukocytes", "type": "cell-based", "source_text": "(§2) Effect of Compound (I) on phagocytosis was examined using rat peritoneal leukocytes according to the method of Stossel et al described in Journal of Clinical Investigation, vol. 51, p. 615 (1972)."}, "peritoneal macrophages": {"tested_on": "peritoneal macrophages", "test": "Stimulative effect on phagocytosis of macrophages", "type": "cell-based, rats", "conditions": "rat peritoneal macrophages", "procedure": "as §2\nCasein sodium was injected intraperitoneally into rats. Three days later, peritoneal macrophages were harvested. Phagocytosis was assessed by the same procedures as shown in Experiment 3."}, "MeHSA-induced DTH [4]": {"tested_on": "MeHSA-induced DTH", "test": "Stimulative effect on cell-mediated immunity: MeHSA-induced delayed type hypersensitivity, footpad thickness", "type": "in vivo, C57BL/6 mice", "conditions": "for DTH (mm) (mean ± standard error): C57BL/6 mice, control 0.21±0.02; for % increase: DTH vs control", "procedure": "(§3) Eight week-old female C57BL/6 mice were injected subcutaneously in the back with 0.1 ml of a 0.25% methylated human serum albumin (hereinafter referred to as MeHSA). Compound (I) was administered orally for 4 consecutive days from the day of the sensitization. One hour after the last administration of Compound (I), 0.025 ml of a 0.1% MeHSA solution was injected subcutaneously on the left hind^paw. The thickness of footpad was measured the 24 hours after the injection using a dissecting microscope by the method of Baba et al [Acta Pathology Japan, vol. 27, p. 165 (1977)]. The difference between the thickness of footpad before and after the injection of MeHSA was expressed as the delayed type hypersensitivity (hereinafter referred to as DTH)."}, "[5]": {"tested_on": "spontaneous rosette forming cells", "test": "Stimulative effect on reduced cell-mediated immunity: spontaneous rosette forming cells in thymus of SHR", "type": "in vivo, spontaneous hypertensive rats", "conditions": "for Ratio (%) of S-RFC (mean ± standard error): SHR, control 46.7±2.9; for % increase: S-RFC ratio vs control", "procedure": "Twenty-four hours after the last administration, thymus was removed and cell suspension was prepared. The numbers of spontaneous rosette forming cells (hereinafter referred to as S-RFC) were measured the method of Takeichi and Boone [Cellular Immunology, vol. 27, p."}, "MeHSA-induced DTH [6]": {"tested_on": "MeHSA-induced DTH", "test": "Immunosuppressive effect: MeHSA-induced DTH in higher responder strain", "type": "in vivo, BALB/c mice", "conditions": "for DTH (mm) (mean ± standard error): BALB/c mice, control 0.96±0.09; for % inhibition: DTH vs control", "procedure": "as §3\nEffect of Compound (I) on the MeHSA-induced DTH was examined in 10 week-old female BALB/c mice, higher responder strain to the MeHSA-induced DTH, by the same procedures as described in Experiment 5."}, "[7]": {"tested_on": "natural thymotoxic autoantibody", "test": "Inhibitory effect on the production of autoantibody (NTA)", "type": "in vivo, NZB/W F1 mice", "conditions": "30 mg/kg orally three times every week", "procedure": "To 4 week-old female NZB/W F, mice was orally administered Compound (I) three times every week and, at 7 week-old mice blood was gathered from the eyegrounds and the serum was separated. The detection of natural thymotoxic autoantibody (hereinafter referred to as NTA) was performed by the method of Takeichi et al [Cellular Immunology, vol. 60, p. 181 (1981)]."}, "male Wistar rats": {"tested_on": "male Wistar rats", "test": "Acute toxicity in rats (LD50, Probit method)", "type": "in vivo", "conditions": "after one week, 10080 min", "procedure": "(§4) Compound (I) was administered orally or intraperitoneally to groups of 8 male Wistar rats weighing about 200 g. After one week, acute toxicity (LD50 value) was determined by Probit method."}, "male dd-strain mice": {"tested_on": "male dd-strain mice", "test": "Acute toxicity in mice (LD50)", "type": "in vivo", "conditions": "10080 min", "procedure": "as §4\nLD50 values of Compound (I) in groups of 10 male dd-strain mice weighing 20-25 g were also determined."}}, "data": [{"smiles": "CCN(CC)CCN1CCC2(CC1)SCC(=O)N2c1ccccc1.Cl.Cl.O", "note": "[Compound (I), 8-(2-diethylaminoethyl)-3-oxo-4-phenyl-l-thia-4,8-diazaspiro-[4.5]decane dihydrochloride monohydrate]", "values": [{"measurement": "Ratio (%) of RFC (mean ± standard error)", "setting": "[1]; 3 mg/kg orally for 4 days", "value": "5.33±0.99", "unit": "%"}, {"measurement": "Ratio (%) of RFC (mean ± standard error)", "setting": "[1]; 30 mg/kg orally for 4 days", "value": "6.28±1.27", "unit": "%"}, {"measurement": "% increase", "setting": "[1]; 3 mg/kg orally", "value": 403, "unit": "%"}, {"measurement": "% increase", "setting": "[1]; 30 mg/kg orally", "value": 492, "unit": "%"}, {"measurement": "Ratio (%) of RFC (mean ± standard error)", "setting": "[2]; Compound (I) 10 mg/kg orally with cyclophosphamide 20 mg/kg", "value": "1.78±0.80", "unit": "%"}, {"measurement": "Ratio (%) of RFC (mean ± standard error)", "setting": "[2]; Compound (I) 30 mg/kg orally with cyclophosphamide 20 mg/kg", "value": "3.86±0.52", "unit": "%"}, {"measurement": "Ratio (%) of RFC (mean ± standard error)", "setting": "[2]; Compound (I) 100 mg/kg orally with cyclophosphamide 20 mg/kg", "value": "5.26±0.64", "unit": "%"}, {"measurement": "% decrease", "setting": "[2]; Compound (I) 10 mg/kg with cyclophosphamide 20 mg/kg", "value": 74, "unit": "%"}, {"measurement": "% decrease", "setting": "[2]; Compound (I) 30 mg/kg with cyclophosphamide 20 mg/kg", "value": 43, "unit": "%"}, {"measurement": "% decrease", "setting": "[2]; Compound (I) 100 mg/kg with cyclophosphamide 20 mg/kg", "value": 23, "unit": "%"}, {"measurement": "% increase of phagocytosis", "setting": "[3]; 10 μM", "value": 27.1, "unit": "%"}, {"measurement": "% increase of phagocytosis", "setting": "[3]; 100 μM", "value": 61.4, "unit": "%"}, {"measurement": "% increase of phagocytosis", "setting": "peritoneal macrophages; 10 µM", "value": 12.5, "unit": "%"}, {"measurement": "% increase of phagocytosis", "setting": "peritoneal macrophages; 100 µM", "value": 30.6, "unit": "%"}, {"measurement": "DTH (mm) (mean ± standard error)", "setting": "MeHSA-induced DTH [4]; 10 mg/kg orally for 4 days", "value": "0.22±0.02", "unit": "mm"}, {"measurement": "DTH (mm) (mean ± standard error)", "setting": "MeHSA-induced DTH [4]; 100 mg/kg orally for 4 days", "value": "0.42±0.03", "unit": "mm"}, {"measurement": "DTH (mm) (mean ± standard error)", "setting": "MeHSA-induced DTH [4]; 300 mg/kg orally for 4 days", "value": "0.33±0.03", "unit": "mm"}, {"measurement": "% increase", "setting": "MeHSA-induced DTH [4]; 10 mg/kg orally", "value": 5, "unit": "%"}, {"measurement": "% increase", "setting": "MeHSA-induced DTH [4]; 100 mg/kg orally", "value": 100, "unit": "%"}, {"measurement": "% increase", "setting": "MeHSA-induced DTH [4]; 300 mg/kg orally", "value": 57, "unit": "%"}, {"measurement": "Ratio (%) of S-RFC (mean ± standard error)", "setting": "[5]; 25 mg/kg orally for 20 days", "value": "55.0±5.2", "unit": "%"}, {"measurement": "Ratio (%) of S-RFC (mean ± standard error)", "setting": "[5]; 100 mg/kg orally for 20 days", "value": "57.8±3.6", "unit": "%"}, {"measurement": "% increase", "setting": "[5]; 25 mg/kg orally", "value": 18, "unit": "%"}, {"measurement": "% increase", "setting": "[5]; 100 mg/kg orally", "value": 24, "unit": "%"}, {"measurement": "DTH (mm) (mean ± standard error)", "setting": "MeHSA-induced DTH [6]; 3 mg/kg orally", "value": "0.91±0.04", "unit": "mm"}, {"measurement": "DTH (mm) (mean ± standard error)", "setting": "MeHSA-induced DTH [6]; 30 mg/kg orally", "value": "0.77±0.03", "unit": "mm"}, {"measurement": "DTH (mm) (mean ± standard error)", "setting": "MeHSA-induced DTH [6]; 300 mg/kg orally", "value": "0.71±0.04", "unit": "mm"}, {"measurement": "% inhibition", "setting": "MeHSA-induced DTH [6]; 3 mg/kg orally", "value": 5, "unit": "%"}, {"measurement": "% inhibition", "setting": "MeHSA-induced DTH [6]; 30 mg/kg orally", "value": 20, "unit": "%"}, {"measurement": "% inhibition", "setting": "MeHSA-induced DTH [6]; 300 mg/kg orally", "value": 36, "unit": "%"}, {"measurement": "NTA (%) (mean ± standard error)", "setting": "[7]; dilution of serum 64, control 28.0±0.8", "value": "9.5±0.6", "unit": "%"}, {"measurement": "NTA (%) (mean ± standard error)", "setting": "[7]; dilution of serum 128, control 20.3±1.1", "value": "8.7±0.5", "unit": "%"}, {"measurement": "LD50", "setting": "male Wistar rats; intraperitoneal", "value": 827, "unit": "mg/kg"}, {"measurement": "LD50", "setting": "male Wistar rats; oral", "value": ">8,000 mg/kg"}, {"measurement": "LD50", "setting": "male dd-strain mice; intraperitoneal", "value": 474, "unit": "mg/kg"}, {"measurement": "LD50", "setting": "male dd-strain mice; oral", "value": "1,841 mg/kg"}]}, {"smiles": "O=P1(N(CCCl)CCCl)NCCCO1", "note": "(stereo not drawn) [Cyclophosphamide, cyclophosphamide, reference compound]", "values": [{"measurement": "% decrease", "setting": "[2]; cyclophosphamide 20 mg/kg alone", "value": 79, "unit": "%"}, {"measurement": "% decrease", "setting": "[2]; cyclophosphamide 20 mg/kg alone, listed as cyclophosphamide", "value": "about 79%"}, {"measurement": "Ratio (%) of RFC (mean ± standard error)", "setting": "[2]; cyclophosphamide 20 mg/kg orally alone, control 6.81±1.38", "value": "1.14±0.63", "unit": "%"}]}]}
